Source: ChEMBL document CHEMBL1201862, “PubChem BioAssay data set” (2004)
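Five concentrations, 48 hours, 96-well plates. GI50 marks 50% less growth.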 Activity calls are given as the source filed them. Rule as the data show it: active = GI50 up to about 1.1 µM and inactive = higher.

Tests used:
Assay in all cases: growth of human tumour cells (NCI), 48 h
Malme-3M = tested on: Malme-3M
HT-29 = tested on: HT-29
UACC-257 = tested on: UACC-257
SK-MEL-28 = tested on: SK-MEL-28
HL-60 = tested on: HL-60
SK-MEL-2 = tested on: SK-MEL-2
SN12C = tested on: SN12C
HCT-15 = tested on: HCT-15
NCI-H226 = tested on: NCI-H226
RPMI-8226 = tested on: RPMI-8226
UACC-62 = tested on: UACC-62
NCI-H23 = tested on: NCI-H23
OVCAR-5 = tested on: OVCAR-5
HOP-92 = tested on: HOP-92
CCRF-CEM = tested on: CCRF-CEM
OVCAR-4 = tested on: OVCAR-4
A549 = tested on: A549
MOLT-4 = tested on: MOLT-4
CAKI-1 = tested on: CAKI-1
NCI/ADR-RES = tested on: NCI/ADR-RES

| SMILES | GI50 (Malme-3M) | GI50 (HT-29) | GI50 (UACC-257) | GI50 (SK-MEL-28) | GI50 (HL-60) | GI50 (SK-MEL-2) | GI50 (SN12C) | GI50 (HCT-15) | GI50 (NCI-H226) | GI50 (RPMI-8226) | GI50 (UACC-62) | GI50 (NCI-H23) | GI50 (OVCAR-5) | GI50 (HOP-92) | GI50 (CCRF-CEM) | GI50 (OVCAR-4) | GI50 (A549) | GI50 (MOLT-4) | GI50 (CAKI-1) | GI50 (NCI/ADR-RES) |
| --- | --- | --- | --- | --- | --- | --- | --- | --- | --- | --- | --- | --- | --- | --- | --- | --- | --- | --- | --- | --- |
| C=CCCC1(C)CCCNC1=S (stereo not drawn) | > 100 µM (inactive) | > 100 µM (inactive) | > 100 µM (inactive) | > 100 µM (inactive) | > 100 µM (inactive) | > 100 µM (inactive) | > 100 µM (inactive) | > 100 µM | > 100 µM (inactive) | > 100 µM (inactive) | > 100 µM (inactive) | > 100 µM (inactive) | > 100 µM (inactive) | > 100 µM (inactive) | 17.7 µM (inactive) | > 100 µM (inactive) | > 100 µM (inactive) | > 100 µM (inactive) |  |  |
| COc1ccc(NC(=O)/C(Cc2cc(=O)oc3cc(O)ccc23)=N\NC(C)(C)C)c(OC)c1 | > 100 µM (inactive) | > 100 µM (inactive) | > 100 µM (inactive) | > 100 µM (inactive) | > 100 µM (inactive) | > 100 µM (inactive) | > 100 µM (inactive) | > 100 µM | > 100 µM (inactive) | > 100 µM (inactive) | > 100 µM (inactive) | > 100 µM (inactive) | > 100 µM (inactive) | 53 µM (inactive) | > 100 µM (inactive) | > 100 µM (inactive) | > 100 µM (inactive) | > 100 µM (inactive) | > 100 µM (inactive) |  |
| S=C1NN=C2C(=C3CCCC4C5CCCCC5N2C34)N1 (stereo not drawn) | > 100 µM (inactive) |  | > 100 µM (inactive) | > 100 µM (inactive) | > 100 µM (inactive) |  |  | > 100 µM | 0.678 µM (active) | 28.4 µM (inactive) |  | > 100 µM (inactive) | > 100 µM (inactive) | > 100 µM (inactive) | 37.2 µM (inactive) | > 100 µM (inactive) | > 100 µM (inactive) | 38 µM (inactive) | > 100 µM (inactive) | > 100 µM (inactive) |
| CCCCNC(=O)C1C(=O)N(CCCC)C(=O)/C1=N\N (stereo not drawn) | > 100 µM (inactive) | > 100 µM (inactive) | > 100 µM (inactive) | > 100 µM (inactive) |  | > 100 µM (inactive) | > 100 µM (inactive) | > 100 µM | > 100 µM (inactive) | > 100 µM (inactive) | > 100 µM (inactive) | > 100 µM (inactive) | > 100 µM (inactive) | > 100 µM (inactive) |  | > 100 µM (inactive) |  | > 100 µM (inactive) | > 100 µM (inactive) |  |
| COc1ccc(/C=C2\CCC(C)C3C2=NN(c2ccccc2)C3c2ccc(OC)c(OC)c2)cc1OC (stereo not drawn) | 3.08 µM (inactive) | 3.54 µM (inactive) | 4.34 µM (inactive) | 4.97 µM (inactive) | 1.54 µM (inactive) | 3.04 µM (inactive) | 4.1 µM (inactive) | 3.01 µM | 2.69 µM (inactive) | 1.23 µM (inactive) | 3.43 µM (inactive) | 4.21 µM (inactive) | 2.65 µM (inactive) |  | 1.87 µM (inactive) |  |  | 2.7 µM (inactive) | 3.94 µM (inactive) | 3.18 µM (inactive) |
| CCC12CCC[C@@]13C=C[C@H](O3)C(C)(C)C2=O (stereo partly drawn) | > 100 µM (inactive) | > 100 µM (inactive) | > 100 µM (inactive) |  | > 100 µM (inactive) | > 100 µM (inactive) | > 100 µM (inactive) | > 100 µM | > 100 µM (inactive) | > 100 µM (inactive) | > 100 µM (inactive) | > 100 µM (inactive) | > 100 µM (inactive) |  | > 100 µM (inactive) | > 100 µM (inactive) | > 100 µM (inactive) | > 100 µM (inactive) | > 100 µM (inactive) |  |
| CN(C)CCNCc1c2ccccc2c(CNCCN(C)C)c2ccccc12 | 18.4 µM (inactive) | 14 µM (inactive) | 18 µM (inactive) | 63.8 µM (inactive) | 20.5 µM (inactive) | 22.4 µM (inactive) | 38.9 µM (inactive) | 41.1 µM | 19.5 µM (inactive) | 31 µM (inactive) | 26.1 µM (inactive) | 36 µM (inactive) | 17.1 µM (inactive) | 10.4 µM (inactive) | 20.8 µM (inactive) | 28.3 µM (inactive) | 23.1 µM (inactive) | 2.2 µM (inactive) |  | > 100 µM (inactive) |
| COc1ccc(-c2oc3cc(O)cc(O)c3c(=O)c2OC)cc1 [ERMANIN] | 38.8 µM (inactive) | 24.7 µM (inactive) | 59.8 µM (inactive) | 27 µM (inactive) | 14.1 µM (inactive) |  |  | 23.4 µM |  | 15 µM (inactive) | 21.5 µM (inactive) |  | > 100 µM (inactive) | 3.23 µM (inactive) | 22.1 µM (inactive) | 44.6 µM (inactive) | 34.9 µM (inactive) | 20.9 µM (inactive) | 24.3 µM (inactive) | 27.2 µM (inactive) |
